Test results taken from publication PMC12162926, “A novel strategy for identifying hepatotoxic constituents in traditional Chinese medicine using dose-normalized intracellular accumulation as a cytotoxicity indicator: a case study of Jinlingzi San” (Frontiers in Pharmacology, 2025).

Test system: L-02 cells
Experiment: Cell growth inhibition assay (CCK-8)
Assay type: cell-based, human
Settings: L-02, 24 h exposure, single compounds

| Structure (SMILES) | IC50 (cell viability) |
| --- | --- |
| COc1ccc2c(c1OC)CN(C)CCc1cc3c(cc1C(=O)C2)OCO3 [ALL, allocryptopine] | not detected IC50 values within the set concentration range |
| CN1CCc2cc3c(cc2C(=O)Cc2ccc4c(c2C1)OCO4)OCO3 [PRO, protopine] | not detected IC50 values within the set concentration range |
| C[C@@H]1O[C@@H](OC[C@H]2O[C@@H](Oc3c(-c4ccc(O)c(O)c4)oc4cc(O)cc(O)c4c3=O)[C@H](O)[C@@H](O)[C@@H]2O)[C@H](O)[C@H](O)[C@H]1O [RUT, rutin] | not detected IC50 values within the set concentration range |
